Test results taken from ChEMBL document CHEMBL1149992 (Bioorg Med Chem Lett, 1997).

Legend:
Butyrylcholinesterase = Butyrylcholinesterase (Rattus norvegicus, UniProt Q9JKC1)
Description: Compound was tested in vitro for inhibitory activity against Butyrylcholinesterase

Acetylcholinesterase [1] = molecular target: T1, Acetylcholinesterase (Homo sapiens, UniProt P22303)
Description: Compound was tested in vitro for inhibitory activity against Acetylcholinesterase

Acetylcholinesterase [2] = molecular target: T1, Acetylcholinesterase; assay: In vitro selectivity towards Acetylcholinesterase relative to compound 1
Acetylcholinesterase [3] = molecular target: T2, Acetylcholinesterase (Rattus norvegicus, UniProt P37136)
T2 sequence (P37136 whole entry): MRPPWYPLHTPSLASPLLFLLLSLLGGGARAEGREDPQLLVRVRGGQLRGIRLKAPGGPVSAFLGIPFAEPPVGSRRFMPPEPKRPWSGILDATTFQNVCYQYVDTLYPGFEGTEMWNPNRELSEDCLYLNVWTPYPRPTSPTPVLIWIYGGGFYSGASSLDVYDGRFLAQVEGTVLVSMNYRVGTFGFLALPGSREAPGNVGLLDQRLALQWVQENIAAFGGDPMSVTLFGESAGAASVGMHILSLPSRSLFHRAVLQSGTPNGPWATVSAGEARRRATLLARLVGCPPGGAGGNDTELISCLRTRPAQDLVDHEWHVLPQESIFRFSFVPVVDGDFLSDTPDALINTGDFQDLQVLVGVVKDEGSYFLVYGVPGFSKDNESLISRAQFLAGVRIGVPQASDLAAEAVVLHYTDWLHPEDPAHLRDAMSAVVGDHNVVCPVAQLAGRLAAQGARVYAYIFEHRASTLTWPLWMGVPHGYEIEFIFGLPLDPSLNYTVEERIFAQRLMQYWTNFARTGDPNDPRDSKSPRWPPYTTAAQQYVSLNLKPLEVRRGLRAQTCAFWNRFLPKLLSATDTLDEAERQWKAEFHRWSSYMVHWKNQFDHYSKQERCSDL
Description: Compound was tested in vitro for inhibitory activity against Acetylcholinesterase in rat cortex

T1 sequence (P22303 whole entry): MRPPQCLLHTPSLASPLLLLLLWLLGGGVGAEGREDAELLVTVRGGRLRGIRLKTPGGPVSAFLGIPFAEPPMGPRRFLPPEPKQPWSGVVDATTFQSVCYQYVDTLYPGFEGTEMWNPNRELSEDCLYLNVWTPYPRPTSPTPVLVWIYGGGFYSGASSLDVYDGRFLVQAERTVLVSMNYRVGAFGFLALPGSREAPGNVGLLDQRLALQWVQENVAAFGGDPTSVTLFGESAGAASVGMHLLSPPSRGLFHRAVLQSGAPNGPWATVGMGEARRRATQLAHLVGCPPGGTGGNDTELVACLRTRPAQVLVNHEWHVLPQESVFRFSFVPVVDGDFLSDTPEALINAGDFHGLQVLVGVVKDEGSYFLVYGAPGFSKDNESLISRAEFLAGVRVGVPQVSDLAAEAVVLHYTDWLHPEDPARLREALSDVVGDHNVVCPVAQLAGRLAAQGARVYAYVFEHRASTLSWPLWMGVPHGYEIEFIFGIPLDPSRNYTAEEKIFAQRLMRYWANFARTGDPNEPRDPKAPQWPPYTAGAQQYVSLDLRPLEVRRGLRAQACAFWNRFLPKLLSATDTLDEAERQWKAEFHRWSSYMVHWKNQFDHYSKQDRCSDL
Sequence of Butyrylcholinesterase (Q9JKC1 whole entry): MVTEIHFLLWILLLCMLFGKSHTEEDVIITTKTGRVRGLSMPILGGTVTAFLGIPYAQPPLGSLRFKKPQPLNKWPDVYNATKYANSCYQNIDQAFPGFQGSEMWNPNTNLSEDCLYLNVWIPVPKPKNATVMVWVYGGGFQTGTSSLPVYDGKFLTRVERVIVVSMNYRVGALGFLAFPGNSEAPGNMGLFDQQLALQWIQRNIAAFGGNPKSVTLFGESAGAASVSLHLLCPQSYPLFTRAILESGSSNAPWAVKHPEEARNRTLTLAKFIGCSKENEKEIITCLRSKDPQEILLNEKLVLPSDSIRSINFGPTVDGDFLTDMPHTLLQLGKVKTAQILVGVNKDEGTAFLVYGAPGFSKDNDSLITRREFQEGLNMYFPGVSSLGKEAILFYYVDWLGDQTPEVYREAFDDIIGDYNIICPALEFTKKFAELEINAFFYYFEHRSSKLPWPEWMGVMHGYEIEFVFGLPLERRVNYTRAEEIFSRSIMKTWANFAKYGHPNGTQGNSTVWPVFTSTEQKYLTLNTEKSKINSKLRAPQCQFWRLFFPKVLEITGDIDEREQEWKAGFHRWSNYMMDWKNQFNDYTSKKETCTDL

Nc1c2c(nc3ccccc13)-c1ccccc1C2 showed an IC50 (Butyrylcholinesterase) of 4.67 µM, an IC50 (Acetylcholinesterase [1]) of 0.676 µM and a Relative Selectivity (Acetylcholinesterase [2]) of 32.1. For the same compound, the IC50 (Acetylcholinesterase [3]) was 0.48 µM.

Nc1c2c(nc3ccccc13)-c1ccccc1CO2 showed an IC50 (Butyrylcholinesterase) of 6.58 µM, an IC50 (Acetylcholinesterase [1]) of 245 µM and a Relative Selectivity (Acetylcholinesterase [2]) of 0.13. The IC50 (Acetylcholinesterase [3]) was greater than 100 µM.

With Nc1c2c(nc3ccccc13)-c1ccccc1CS2 the IC50 (Butyrylcholinesterase) was 4.9 µM, the IC50 (Acetylcholinesterase [1]) was 18.6 µM and the Relative Selectivity (Acetylcholinesterase [2]) was 1.22. It also gave an IC50 (Acetylcholinesterase [3]) greater than 100 µM.

Work on Nc1c2c(nc3ccccc13)-c1ccccc1CC2 yielded an IC50 (Butyrylcholinesterase) of 1.18 µM, an IC50 (Acetylcholinesterase [1]) of 2.98 µM and a Relative Selectivity (Acetylcholinesterase [2]) of 1.83. It also gave an IC50 (Acetylcholinesterase [3]) of 4 µM.

Nc1cc(-c2ccccc2)nc2ccccc12 gave an IC50 (Butyrylcholinesterase) of 12 µM, an IC50 (Acetylcholinesterase [1]) of 11.5 µM and a Relative Selectivity (Acetylcholinesterase [2]) of 4.86. It also gave an IC50 (Acetylcholinesterase [3]) greater than 100 µM.
